From patent publication US20240083886A1, “HETEROCYCLIC GLP-1 AGONISTS” (Gasherbrum Bio, Inc., priority 2020, published 2024)

Molecular target: GLP-1 Receptor (Homo sapiens, UniProt P43220)
Experiment: GLP-1R agonist cAMP stimulation assay
Type: cell-based
Settings: not given
Description: Activation of GLP-1 receptor is known to stimulate cyclic AMP (cAMP) production in cells which indicates primary coupling to the Gαs subunit of the G protein heterotrimeric complex.
To optimize functional activity directed toward Gαs coupling, a HEK293/CRE-Luc cell line developed by HDB stably expressing the GLP-1 Receptor was used. 200× concentration of compound working solutions were prepared (Agilent Technologies Bravo) with ½ log serial dilution in 384-well Echo LDV plate (Labcyte, Cat #LP-0200). 50 nL/well 200× concentration of compound working solutions were moved to 384-well white low volume plate (Greiner, Cat #784075) using Labcyte ECHO550. 1×10^5 cells/mL HEK293/GLP1R/CRE-LUC(HD Biosciences) cell suspensions prepared with assay buffer[DPBS containing 0.5 mM IBMX(Sigma, Cat #15879) and 0.1% BSA (GENVIEW, Cat #FA016-100 g)], 10 uL cell suspensions were added to each well of previous generated assay plate which already contains 50 nl compound at 200×concentration using ThermoFisher Multidrop Combi (1000 cells/well). Seal the plate and incubate at 37° C. with 5% CO2 for 30 min.
After incubation the cAMP assay signal was generated using cAMP dynamic 2 Kit (Cisbio). 5 μL cAMP-d2 working solution was added to each well, followed with 5 μL Anti-cAMP antibody-cryptate working solution added to each well using ThermoFisher Multidrop Combi. Incubate at room temperature for 1 hour protected from light. Read the fluorescence at 665 and 615 nm with Reader PerkinElmer EnVision.
% Activity=100%×(mean RLU of test sample−mean RLU of vehicle control)/(mean RLU of MAX control−mean RLU of vehicle control))

GLP-1 Receptor, sequence (P43220 24-463, species assumed): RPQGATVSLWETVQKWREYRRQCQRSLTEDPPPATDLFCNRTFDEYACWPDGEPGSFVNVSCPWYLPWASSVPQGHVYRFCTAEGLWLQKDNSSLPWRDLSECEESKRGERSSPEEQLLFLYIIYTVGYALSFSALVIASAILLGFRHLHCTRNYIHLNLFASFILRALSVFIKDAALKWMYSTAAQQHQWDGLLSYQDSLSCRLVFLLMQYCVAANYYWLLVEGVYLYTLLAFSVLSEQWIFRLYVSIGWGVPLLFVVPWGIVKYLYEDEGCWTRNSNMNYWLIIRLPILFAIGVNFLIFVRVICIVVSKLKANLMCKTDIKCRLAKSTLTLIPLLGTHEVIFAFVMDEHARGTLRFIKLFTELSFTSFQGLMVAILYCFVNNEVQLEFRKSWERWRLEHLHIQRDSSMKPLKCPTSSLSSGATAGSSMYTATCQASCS

EC50 [nM] | Compound
1.8 | Fc1cc(Cl)ccc1Cc1nccc(OC2CCN(Cc3nc4cc(-c5nnc[nH]5)ncc4n3C[C@@H]3CCO3)CC2)n1 [Compound 166a, 2-[(4-chloro-2-fluorophenyl)methyl]-4-({1-[(3-{[(2S)-oxetan-2-yl]methyl}-6-(4H-1,2,4-triazol-3-yl)-3H-imidazo[4,5-c]pyridin-2-yl)methyl]piperidin-4-yl}oxy)pyrimidine]
0.22 | FC(F)(F)c1nnc(-c2cnc3c(c2)nc(CN2CCC(Oc4cccc(Cc5ccc(Cl)cc5)n4)CC2)n3C[C@@H]2CCO2)[nH]1 [Compound 143a, 2-[(4-chlorophenyl)methyl]-6-({1-[(3-{[(2S)-oxetan-2-yl]methyl}-6-[5-(trifluoromethyl)-4H-1,2,4-triazol-3-yl]-3H-imidazo[4,5-b]pyridin-2-yl)methyl]piperidin-4-yl}oxy)pyridine]
0.22 | FC(F)(F)c1nnc(-c2ccc3c(c2)nc(CN2CCC(Oc4cccc(Cc5ccc(Cl)cc5)n4)CC2)n3C[C@@H]2CCO2)[nH]1 [Compound 136a, 2-{[4-({6-[(4-chlorophenyl)methyl]pyridin-2-yl}oxy)piperidin-1-yl]methyl}-1-{[(2S)-oxetan-2-yl]methyl}-5-[5-(trifluoromethyl)-4H-1,2,4-triazol-3-yl]-1H-1,3-benzodiazole]
0.17 | FC(F)(F)c1nnc(-c2cnc3c(c2)nc(CN2CCC(Oc4ccnc(Cc5ccc(Cl)cc5)n4)CC2)n3C[C@@H]2CCO2)[nH]1 [Compound 120a, 2-[(4-chlorophenyl)methyl]-4-({1-[(3-{[(2S)-oxetan-2-yl]methyl}-6-[5-(trifluoromethyl)-4H-1,2,4-triazol-3-yl]-3H-imidazo[4,5-b]pyridin-2-yl)methyl]piperidin-4-yl}oxy)pyrimidine]
44 | Fc1cc(Cl)ccc1Cc1nccc(OC2CCN(Cc3nc4cc(/C=C/c5cccnc5)ccc4n3C[C@@H]3CCO3)CC2)n1 [Compound 118a, 2-{[4-({2-[(4-chloro-2-fluorophenyl)methyl]pyrimidin-4-yl}oxy)piperidin-1-yl]methyl}-1-{[(2S)-oxetan-2-yl]methyl}-5-[(1E)-2-(pyridin-3-yl)ethenyl]-1H-1,3-benzodiazole]
5.7 | CCOCCn1c(CN2CCC(Oc3ccnc(Cc4ccc(Cl)cc4)n3)CC2)nc2cc(-c3nnc(C(F)(F)F)[nH]3)cnc21 [Compound 123, 2-[(4-chlorophenyl)methyl]-4-[(1-{[3-(2-ethoxyethyl)-6-[5-(trifluoromethyl)-4H-1,2,4-triazol-3-yl]-3H-imidazo[4,5-b]pyridin-2-yl]methyl}piperidin-4-yl)oxy]pyrimidine]

Same assay, conditions: HEK293/GLP1R/CRE-LUC cells, cAMP dynamic 2 Kit (Cisbio), 30 min incubation at 37° C.; read-out: EC50

Compound | EC50 [nM]
CC(C)c1ccc(C(=O)Nc2ccc3c(c2)nc(CN2CCC(Oc4ccnc(Cc5ccc(Cl)cc5F)n4)CC2)n3C[C@@H]2CCO2)cn1 [Compound 116a, N-(2-{[4-({2-[(4-chloro-2-fluorophenyl)methyl]pyrimidin-4-yl}oxy)piperidin-1-yl]methyl}-1-{[(2S)-oxetan-2-yl]methyl}-1H-1,3-benzodiazol-5-yl)-6-(propan-2-yl)pyridine-3-carboxamide] | 11
O=C(Nc1ccc2c(c1)nc(CN1CCC(Oc3ccnc(Cc4ccc(Cl)cc4F)n3)CC1)n2C[C@@H]1CCO1)c1ccc(-c2ccccc2)nc1 [Compound 119a, N-(2-{[4-({2-[(4-chloro-2-fluorophenyl)methyl]pyrimidin-4-yl}oxy)piperidin-1-yl]methyl}-1-{[(2S)-oxetan-2-yl]methyl}-1H-1,3-benzodiazol-5-yl)-6-phenylpyridine-3-carboxamide] | 43
COc1cncc(-c2cc3nc(CN4CCC(Oc5cccc(Cc6ccc(Cl)cc6F)n5)CC4)n(C[C@@H]4CCO4)c3cn2)n1 [Compound 187a, 2-(2-{[4-({6-[(4-chloro-2-fluorophenyl)methyl]pyridin-2-yl}oxy)piperidin-1-yl]methyl}-3-{[(2S)-oxetan-2-yl]methyl}-3H-imidazo[4,5-c]pyridin-6-yl)-6-methoxypyrazine] | > 300

Now from value to compound:

EC50 [nM] | Compound
3.4 | Fc1cc(Cl)ccc1COc1cccc(N[C@@H]2CCN(Cc3nc4cc(-c5nnc(C(F)(F)F)[nH]5)ncc4n3C[C@@H]3CCO3)C2)n1 [Compound 174a, 6-[(4-chloro-2-fluorophenyl)methoxy]-N-[(3R)-1-[(3-{[(2S)-oxetan-2-yl]methyl}-6-[5-(trifluoromethyl)-4H-1,2,4-triazol-3-yl]-3H-imidazo[4,5-c]pyridin-2-yl)methyl]pyrrolidin-3-yl]pyridin-2-amine]
0.49 | N#CC1(Cn2c(CN3CCC(Oc4cccc(Cc5ccc(Cl)cc5F)n4)CC3)nc3cc(-c4nnc(C(F)(F)F)[nH]4)ncc32)CC1 [Compound 179, 1-[(2-{[4-({6-[(4-chloro-2-fluorophenyl)methyl]pyridin-2-yl}oxy)piperidin-1-yl]methyl}-6-[5-(trifluoromethyl)-4H-1,2,4-triazol-3-yl]-3H-imidazo[4,5-c]pyridin-3-yl)methyl]cyclopropane-1-carbonitrile]
0.32 | N#CC1(Cn2c(CN3CCC(Oc4ccnc(Cc5ccc(Cl)cc5)n4)CC3)nc3cc(-c4noc(=O)[nH]4)ccc32)CC1 [Compound 155, 1-[(2-{[4-({2-[(4-chlorophenyl)methyl]pyrimidin-4-yl}oxy)piperidin-1-yl]methyl}-5-(5-oxo-4,5-dihydro-1,2,4-oxadiazol-3-yl)-1H-1,3-benzodiazol-1-yl)methyl]cyclopropane-1-carbonitrile]
0.23 | O=c1[nH]c(-c2cc3nc(CN4CCC(Oc5ccnc(Cc6ccc(Cl)cc6F)n5)CC4)n(C[C@@H]4CCO4)c3cn2)no1 [Compound 167a, 3-(2-{[4-({2-[(4-chloro-2-fluorophenyl)methyl]pyrimidin-4-yl}oxy)piperidin-1-yl]methyl}-3-{[(2S)-oxetan-2-yl]methyl}-3H-imidazo[4,5-c]pyridin-6-yl)-4,5-dihydro-1,2,4-oxadiazol-5-one]
0.2 | Clc1ccc(Cc2nccc(OC3CCN(Cc4nc5cc(-c6nnn[nH]6)ccc5n4C[C@@H]4CCO4)CC3)n2)cc1 [Compound 107a, 2-{[4-({2-[(4-chlorophenyl)methyl]pyrimidin-4-yl}oxy)piperidin-1-yl]methyl}-1-{[(2S)-oxetan-2-yl]methyl}-5-(1H-1,2,3,4-tetrazol-5-yl)-1H-1,3-benzodiazole]
0.19 | O=C(O)c1ccc2c(c1)nc(CN1CCC(Oc3ccnc(Cc4ccc(Cl)cc4F)n3)CC1)n2C[C@@H]1CCO1 [Compound 135a, 2-{[4-({2-[(4-chloro-2-fluorophenyl)methyl]pyrimidin-4-yl}oxy)piperidin-1-yl]methyl}-1-{[(2S)-oxetan-2-yl]methyl}-1H-1,3-benzodiazole-5-carboxylic acid]
0.14 | Fc1cc(Cl)ccc1Cc1cccc(OC2CCN(Cc3nc4cc(-c5nnc(C(F)(F)F)[nH]5)ccc4n3C[C@@H]3CCO3)CC2)n1 [Compound 137a, 2-{[4-({6-[(4-chloro-2-fluorophenyl)methyl]pyridin-2-yl}oxy)piperidin-1-yl]methyl}-1-{[(2S)-oxetan-2-yl]methyl}-5-[5-(trifluoromethyl)-4H-1,2,4-triazol-3-yl]-1H-1,3-benzodiazole]
0.13 | Fc1cc(Cl)ccc1Cc1nccc(OC2CCN(Cc3nc4cc(-c5nnn[nH]5)ncc4n3C[C@@H]3CCO3)CC2)n1 [Compound 177a, 2-[(4-chloro-2-fluorophenyl)methyl]-4-({1-[(3-{[(2S)-oxetan-2-yl]methyl}-6-(1H-1,2,3,4-tetrazol-5-yl)-3H-imidazo[4,5-c]pyridin-2-yl)methyl]piperidin-4-yl}oxy)pyrimidine]
0.093 | Cc1ncccc1C(=O)Nc1ccc2c(c1)nc(CN1CCC(Oc3ccnc(Cc4ccc(Cl)cc4)n3)CC1)n2C[C@@H]1CCO1 [Compound 103a, N-(2-{[4-({2-[(4-chlorophenyl)methyl]pyrimidin-4-yl}oxy)piperidin-1-yl]methyl}-1-{[(2S)-oxetan-2-yl]methyl}-1H-1,3-benzodiazol-5-yl)-2-methylpyridine-3-carboxamide]
0.048 | Fc1cc(Cl)ccc1Cc1nccc(OC2CCN(Cc3nc4cc(-c5nnc(C(F)(F)F)[nH]5)cnc4n3C[C@@H]3CCO3)CC2)n1 [Compound 142a, 2-[(4-chloro-2-fluorophenyl)methyl]-4-({1-[(3-{[(2S)-oxetan-2-yl]methyl}-6-[5-(trifluoromethyl)-4H-1,2,4-triazol-3-yl]-3H-imidazo[4,5-b]pyridin-2-yl)methyl]piperidin-4-yl}oxy)pyrimidine]
0.03 | Fc1cc(Cl)ccc1Cc1nccc(OC2CCN(Cc3nc4cc(-c5nnc(C(F)(F)F)[nH]5)ncc4n3C[C@@H]3CCO3)CC2)n1 [Compound 138a, 2-[(4-chloro-2-fluorophenyl)methyl]-4-({1-[(3-{[(2S)-oxetan-2-yl]methyl}-6-[5-(trifluoromethyl)-4H-1,2,4-triazol-3-yl]-3H-imidazo[4,5-c]pyridin-2-yl)methyl]piperidin-4-yl}oxy)pyrimidine]
